Experimental data: patent US12115178B2, “Acylated active agents and methods of their use for the treatment of autoimmune disorders” (Flagship Pioneering Innovations V, Inc., priority 2018, dated 2024)

Assays:
AhR = AhR activation in Caco-2 cells through CYP1A1 mRNA expression; conditions: overnight
Procedure: Caco-2 cells from American Type Culture Collection (ATCC) were plated in a sterile tissue culture treated 96-well plate (ThermoFisher) at […], and grown overnight at 37° C., 5% CO2 in DMEM complete (Gibco) in order to achieve confluence. After the incubation medium was aspirated off of the Caco-2 monolayers, tissues were then washed with 200 μL of warmed PBS solution, and subsequently 190 μL of pre-warmed growth medium was added to each well. Compounds of interest were diluted at a 20× concentration in growth medium containing 2% DMSO, and 10 μL of compound solutions were added to respective wells in triplicate. Compounds where incubated overnight at 37° C., 5% CO2. 2-(1′H-indole-3′-carbonyl)-thiazole-4-carboxylic acid methyl ester (ITE) was used as the positive control for AhR activation at 1 and 100 μM concentrations. At the end of the incubation, medium was aspirated off of the Caco-2 cells, and the cells washed with 100 μL of cold PBS solution. RNA was extracted via the TaqMan™ Gene Expression Cells-to-CT™ Kit (ThermoFisher) according to the manufacturers protocol. The QuantStudio 6 Flex (Applied Biosciences) was used to analyze mRNA levels of CYP1A1 using GAPDH as the endogenous control. TaqMan™ probe sets for both genes were acquired from ThermoFisher. Samples were run in triplicate and data was analyzed using the QuantStudio software and reported as linear (Table 1) and log 2(ΔΔCT) values. Statistical analysis was performed using a two-tailed t-test comparing CYP1A1 levels in the presence of each individual compound to the vehicle negative control.

[1] = test system: Primary Human Peripheral Blood Mononuclear Cells (PBMCs); experiment: Inflammatory signals in LPS-treated primary human PBMCs; assay type: cell-based; conditions: 100 uM, 24 hours
Procedure: Human donor blood (8 mL) was collected in sodium citrate CPT tubes and centrifuged at 1,600×g for 20 minutes at room temperature. Buffy coat containing PBMCs was collected and transferred to a 50 mL conical tube containing 30 mL of RPMI-1640 medium at room temperature (supplemented with penicillin-streptomycin). PBMCs samples were centrifuged at 400×g for 10 minutes at 10° C. The pelleted PBMCs were washed twice in 10 ml of RPMI-1640 medium (supplemented with penicillin-streptomycin), then resuspended in RPMI-1640 medium (supplemented with penicillin-streptomycin, fetal bovine serum, and L-Glutamine). PBMCs were filtered through a 70 micron mesh to remove any cellular debris. […] PBMCs in a 96-well plate were rested for 30 minutes in a 37° C., 5% CO2 incubator, then subsequently treated with 10 μl of indicated compound. After 2 hours 10 μL of LPS (O111:B4) 1 mg/mL was added to test wells. After 24 hours of incubation at 37° C., 5% CO2, 100 μL of cell supernatant was collected and transferred to a 96-well plate (non-tissue treated, flat bottom). The plate was centrifuged at 350×g for 5 minutes at room temperature, and then the clear supernatant transferred to a new 96-well plate (non-tissue treated, flat bottom). The remaining cells were tested for viability using CellTiter-Glo® Luminescent Cell Viability Assay (Promega). The supernatant was analyzed for TNFα, IL-6 and […] Systems), using Luminex Immunoassay Technology (MAGPIX System). Cytokine levels of LPS treated DMSO control samples were set to 100%, and compound treated samples were expressed relative to this (Table 3).

neutrophil = experiment: Neutrophil chemokine production assay; assay type: cell-based, human; conditions: 12 h
Procedure: A volume 25 mL of human blood was layered over 15 mL of Histopaque®-1077 and centrifuged at 500 g, RT, for 30 min with no break applied to the centrifuge. The PBMC band and Histopaque®-1077 layer were removed leaving behind the bottom red layer which was mixed with 40 mL of 1× red blood cell (RBC) lysis buffer (Sigma-Aldrich) was and split into two 50 mL tubes. The volume for both fractions was brought to 50 mL with RBC lysis buffer, mixed by inversion, and then incubated at RT for 10 min. Solutions were centrifuged at 250 g, for 10 min at RT and the supernatant liquids removed. The reddish pellets were re-suspended in 1 mL of RBC lysis buffer and combined. The cell suspension was incubated for 5 min at RT in RBC lysis buffer. After incubation 45 mL of Hanks Balanced Salt Solution with no calcium, magnesium or phenol red (HBSS−) was added, the cell suspension was spun (250 g for 10 min at RT), and supernatant liquids were removed. The white pellet was re-suspended in 1 mL of HBSS−, and cell counts were determined. The neutrophil cell suspension was brought to a concentration of 1.11e6 cells/mL in RPMI complete (Sigma-Aldrich), and 180 μL of cell suspension was transferred to all wells within a sterile 96-well tissue culture treated plate resulting in 2.0e5 cells/well. […] After incubation, 10 μL of 2 μg/mL LPS solution in RPMI complete was added to each well except for control wells, which received an additional 10 μL of media. Cells were incubated for 12 h (37° C., 5% CO2), after which plates were centrifuged at 250 g, RT, for 5 min and supernatant liquids were obtained and stored at −80° C. until analyzed via Luminex® Multiplex Assay for various chemokines and cytokines. Three data points were acquired from two different blood donors and averaged.

naïve CD4+ T cells = experiment: Human regulatory T cell differentiation assay; assay type: cell-based; conditions: 6 days
Procedure: Peripheral blood mononuclear cells (PBMCs) from whole blood donated by health volunteers were separated by Ficoll-Paque gradient centrifugation and naïve CD4^+ T cells were subsequently isolated using magnet beads (EasySep™ Human Naïve CD4^+ T Cell Isolation Kit, Cambridge, MA). For regulatory T cell (Treg) differentiation assay, naïve CD4^+ T cells were cultured (1-10×10^4 cells) in CTS OpTmizer medium for 6 days and stimulated with 5 ng/ml TGF-β, 100 U/ml IL-2, and ImmunoCult™ Human […] T Cell Activator; Stemcell #10990) with/without our Compounds. Cell viability was determined using a viability dye (eBioscience Fixable Viability Dye eFluor 780: ThermoFisher 65-0865-14) at 1:500 dilution. The cells were gated for Treg, defined as Live, CD11c^−, CD14^−, CD19^−, CD8^−, CD4^+, CD3^+, CD25^+, FOXP3^+. Percent (%) Tregs were calculated as percentage of CD4^+, CD25^+, FOXP3^+ cells over total CD4 T cells. Statistical analysis was performed with GraphPad Prism Software Using One-Way ANOVA.

[2] = test system: type II collagen arthritis; experiment: In vivo rheumatoid arthritis model (semi-established type II collagen arthritis); set-up: species or system Lewis rats; conditions: 420 mg/kg PO BID, rats
Procedure: A study was conducted to determine the efficacy of test articles dosed by the oral (PO) route for inhibition of the inflammation (paw swelling), cartilage destruction, and bone resorption that occurs in semi-established type II collagen arthritis in female Lewis rats. Rats (10 per group) were injected intradermally (ID) with porcine type II collagen to induce arthritis; one group of rats (4 per group) served as vehicle-treated naïve controls. […] Positive controls were treated PO, BID with the reference compound Tofacitinib citrate (10 mg/kg). The rats were euthanized for necropsy on study day 21 (animals #1-5 in each group, animals #1-2 in naïve group) or 22 (animals #6-10 in each group, animals #3-4 in naïve group). Efficacy evaluation was based on animal body weights (Table 9), daily ankle caliper measurements (FIG. 4), ankle diameter expressed as area under the curve (AUC) (Table 10), terminal hind paw weights (Table 11), histopathologic evaluation of hind paws (Ankle Inflammation score: Table 12, Ankle Pannus score: Table 13, Ankle Cartilage Damage score: Table 14, Ankle Bone Resorption score: Table 15, Ankle Periosteal Bone score: Table 16, Ankle Periosteal Bone Width: Table 17) and knees (Knee Inflammation score: Table 18, Knee Pannus score: Table 19, Knee Cartilage Damage score: Table 20, Knee Bone Resorption score: Table 21), and relative spleen to body weight ratio (Table 22). Terminal serum was analyzed by enzyme-linked immunosorbent assay (ELISA) for anti-type II collagen antibodies (IgG) (Table 23). […] Statistics were conducted using ordinary one-way ANOVA with Dunnett's multiple comparison correction in GraphPad Prism.

O=C(O)c1ccccc1 [Benzoic acid]
Average CYP1A1 mRNA levels (AhR; 10.0 μM): + (+ = >2-fold Vehicle) | Average CYP1A1 mRNA levels (AhR; 100.0 μM): + (+ = >2-fold Vehicle)

OCc1c[nH]c2ccccc12 [indole-3-carbinol]
Average CYP1A1 mRNA levels (AhR; 1000.0 μM): + (+ = >2-fold Vehicle)

COC(=O)c1csc(C(=O)c2c[nH]c3ccccc23)n1 [ITE, 2-(1′H-indole-3′-carbonyl)-thiazole-4-carboxylic acid methyl ester]
Average CYP1A1 mRNA levels (AhR; 1.0 μM): +++ (+++ = >10-fold Vehicle)

O=C[C@H](O)[C@@H](O)[C@@H](O)CO [L-arabinose]
IL1β % DMSO control [1]: = ((=) 90%> <110% DMSO) | IL6 % DMSO control [1]: + ((+) 50%> <90% DMSO) | TNFα % of DMSO control [1]: + ((+) 50%> <90% DMSO) | % IL-8 (Vehicle + LPS = 100%) (neutrophil; 500.0 μM): − (− = >90% Vehicle) | % MIP-1α (Vehicle + LPS = 100%) (neutrophil; 500.0 μM): − (− = >90% Vehicle) | % MIP-1β (DMSO + LPS = 100%) (neutrophil; 500.0 μM): − (− = >90% Vehicle) | % IL-8 (Vehicle + LPS = 100%) (neutrophil; 1000.0 μM): − (− = >90% Vehicle) | % MIP-1α (Vehicle + LPS = 100%) (neutrophil; 1000.0 μM): − (− = >90% Vehicle) | % MIP-1β (DMSO + LPS = 100%) (neutrophil; 1000.0 μM): − (− = >90% Vehicle) | Cell viability % DMSO (naïve CD4+ T cells; 0.5 mM): = (90%> <110%: =) | Cell viability % DMSO (naïve CD4+ T cells; 1 mM): = (90%> <110%: =)

O=c1c(O)c(-c2ccc(O)c(O)c2)oc2cc(O)cc(O)c12 [quercetin, reference compound]
IL1β % DMSO control [1]: + ((+) 50%> <90% DMSO) | % IL-8 (Vehicle + LPS = 100%) (neutrophil; 0.1 μM): − (− = >90% Vehicle) | % MIP-1α (Vehicle + LPS = 100%) (neutrophil; 0.1 μM): − (− = >90% Vehicle) | % MIP-1β (DMSO + LPS = 100%) (neutrophil; 0.1 μM): − (− = >90% Vehicle) | % IL-8 (Vehicle + LPS = 100%) (neutrophil; 1.0 μM): − (− = >90% Vehicle) | % MIP-1α (Vehicle + LPS = 100%) (neutrophil; 1.0 μM): − (− = >90% Vehicle) | % MIP-1β (DMSO + LPS = 100%) (neutrophil; 1.0 μM): − (− = >90% Vehicle) | Cell viability % DMSO (naïve CD4+ T cells; 100 nM): = (90%> <110%: =) | Cell viability % DMSO (naïve CD4+ T cells; 1 uM): = (90%> <110%: =)

Cn1cc(C[C@H](N)C(=O)O)c2ccccc21 [1-methylindole-3-alanine]
Average CYP1A1 mRNA levels (AhR; 10.0 μM): + (+ = >2-fold Vehicle) | Average CYP1A1 mRNA levels (AhR; 100.0 μM): +++ (+++ = >10-fold Vehicle)

c1ccc2[nH]ccc2c1 [indole]
Average CYP1A1 mRNA levels (AhR; 1000.0 μM): + (+ = >2-fold Vehicle)

CCCC(=O)O [Butyric acid, reference compound]
Cell viability % DMSO (naïve CD4+ T cells; 3 mM): − (<90%: −) | Mean Ankle Diameter AUC (mm*day) [2]: 92.46 mm*day | Mean Ankle Periosteal Bone width (um) [2]: 573.30 um | Mean Knee Inflammation score (0-5) [2]: 4.83 | Mean Terminal hind paw weights [2]: 2.4759 g | Mean body weight change, day −1 to 21 (%) [2]: −2.3% | Relative Spleen to Body Weight (Mean) [2]: 0.2416 | Mean Ankle Bone Resorption score (0-5) ([2]; 0 = normal, 5 = severe): 2.95 | Mean Ankle Cartilage Damage score (0-5) ([2]; 0 = normal, 5 = severe): 3.80 | Mean Ankle Pannus score (0-5) ([2]; 0 = normal, 5 = severe): 2.95 | Mean Ankle Periosteal Bone score (0-5) ([2]; 0 = normal, 5 = severe): 3.08 | Mean Ankle inflammation score (0-5) ([2]; 0 = normal, 5 = severe): 2.4759 | Mean Knee Bone Resorption score (0-5) ([2]; 0 = normal, 5 = severe): 2.43 | Mean Knee Cartilage Damage score (0-5) ([2]; 0 = normal, 5 = severe): 3.28 | Mean Knee Pannus score (0-5) ([2]; 0 = normal, 5 = severe): 2.43 | Serum IgG ([2]; terminal serum ELISA for anti-type II collagen antibodies): 5824.57 µg/mL

CCC(=O)O [propionate]
IL1β % DMSO control [1]: + ((+) 50%> <90% DMSO) | % IL-8 (Vehicle + LPS = 100%) (neutrophil; 500.0 μM): − (− = >90% Vehicle) | % MIP-1α (Vehicle + LPS = 100%) (neutrophil; 500.0 μM): +++ (+++ = <50% Vehicle) | % MIP-1β (DMSO + LPS = 100%) (neutrophil; 500.0 μM): +++ (+++ = <50% Vehicle) | % IL-8 (Vehicle + LPS = 100%) (neutrophil; 1000.0 μM): ++ (++ = <70%Vehicle) | % MIP-1α (Vehicle + LPS = 100%) (neutrophil; 1000.0 μM): +++ (+++ = <50% Vehicle) | % MIP-1β (DMSO + LPS = 100%) (neutrophil; 1000.0 μM): +++ (+++ = <50% Vehicle) | % IL-8 (Vehicle + LPS = 100%) (neutrophil; 3000.0 μM): +++ (+++ = <50% Vehicle) | % MIP-1α (Vehicle + LPS = 100%) (neutrophil; 3000.0 μM): +++ (+++ = <50% Vehicle) | % MIP-1β (DMSO + LPS = 100%) (neutrophil; 3000.0 μM): +++ (+++ = <50% Vehicle)
